Laboratory results from US20230391809A1, “HYDROPHOBIC COMPOSITIONS INCLUDING A HYDROPHILIC ACTIVE INGREDIENT AND METHODS RELATING THERETO” (BioMimetix JV, LLC, priority 2022, published 2023).
Where two headings read alike, the source gives them in different places. Marks after values point to notes of the source that are not given here.

Procedure: The vial was placed in a first 3 mL low density polyethylene (LDPE) bag with a 1/6 desiccant and the bag was twist tie closed. The first bag was placed in a second 3 mL LDPE bag, twist tie closed, and placed in a high density polyethylene (HDPE) container.

With `CC[n+]1ccccc1-c1c2nc(c(-c3cccc[n+]3CC)c3ccc([n-]3)c(-c3cccc[n+]3CC)c3nc(c(-c4cccc[n+]4CC)c4ccc1[n-]4)C=C3)C=C2.[Cl-].[Cl-].[Cl-].[Cl-].[Cl-].[Mn+3]` [BMX-010] the Appearance (25° C./60% RH, 3 Month) was “Brown Solid”, the “Assay by UPLC (Wt % of an anhydrous basis, sum of Atropisomers)” value (25° C./60% RH, 3 Month) was 100.3% and the “PSD D10” value (25° C./60% RH, 3 Month) was “D10: 0.60 μm”. The “PSD D50” value (25° C./60% RH, 3 Month) was “D50: 1.1 μm”, the “PSD D90” value (25° C./60% RH, 3 Month) was “D90: 2.0 μm” and the “Total Impurities by HPLC (Area %)” value (25° C./60% RH, 3 Month) was 0.81%. For the same compound, the “Water Content by Karl Fischer” value (25° C./60% RH, 3 Month) was 7.3%, the Appearance (25° C./60% RH, 6 Month) was “Brown Solid” and the “Assay by UPLC (Wt % of an anhydrous basis, sum of Atropisomers)” value (25° C./60% RH, 6 Month) was 99.9%. For the same compound, the “PSD D10” value (25° C./60% RH, 6 Month) was “D10: 0.62 μm*”, the “PSD D50” value (25° C./60% RH, 6 Month) was “D50: 1.2 μm*” and the “PSD D90” value (25° C./60% RH, 6 Month) was “D90: 2.0 μm*”. The “Total Impurities by HPLC (Area %)” value (25° C./60% RH, 6 Month) was 0.88%, the “Water Content by Karl Fischer” value (25° C./60% RH, 6 Month) was 7.7% and the XRPD (25° C./60% RH, 6 Month) was “Amorphous”. For the same compound, the Appearance (40° C./75% RH, 3 Month) was “Brown Solid”, the “Assay by UPLC (Wt % of an anhydrous basis, sum of Atropisomers)” value (40° C./75% RH, 3 Month) was 100.2% and the “PSD D10” value (40° C./75% RH, 3 Month) was “D10: 0.60 μm”. The “PSD D50” value (40° C./75% RH, 3 Month) was “D50: 1.2 μm”, the “PSD D90” value (40° C./75% RH, 3 Month) was “D90: 2.1 μm” and the “Total Impurities by HPLC (Area %)” value (40° C./75% RH, 3 Month) was 1.3%. The “Water Content by Karl Fischer” value (40° C./75% RH, 3 Month) was 7.5%, the Appearance (40° C./75% RH, 6 Month) was “Brown Solid” and the “Assay by UPLC (Wt % of an anhydrous basis, sum of Atropisomers)” value (40° C./75% RH, 6 Month) was 97.9%**. The “PSD D10” value (40° C./75% RH, 6 Month) was “D10: 0.61 μm*”, the “PSD D50” value (40° C./75% RH, 6 Month) was “D50: 1.2 μm*” and the “PSD D90” value (40° C./75% RH, 6 Month) was “D90: 2.1 μm*”. The “Total Impurities by HPLC (Area %)” value (40° C./75% RH, 6 Month) was 1.6%**, the “Water Content by Karl Fischer” value (40° C./75% RH, 6 Month) was 8.5% and the XRPD (40° C./75% RH, 6 Month) was “Amorphous”. For the same compound, the Appearance (T = 0) was “Brown Solid”, the “Assay by UPLC (Wt % of an anhydrous basis, sum of Atropisomers)” value (T = 0) was 97.5% and the “PSD D10” value (T = 0) was “D10: 0.61 μm”. The “PSD D50” value (T = 0) was “D50: 1.2 μm”, the “PSD D90” value (T = 0) was “D90: 2.0 μm” and the “Total Impurities by HPLC (Area %)” value (T = 0) was 0.67%. For the same compound, the “Water Content by Karl Fischer” value (T = 0) was 6.9%, the XRPD (T = 0) was “Amorphous” and the Appearance (−20° C., 3 Month) was “Brown Solid”. For the same compound, the “Assay by UPLC (Wt % of an anhydrous basis, sum of Atropisomers)” value (−20° C., 3 Month) was 101.4%, the “PSD D10” value (−20° C., 3 Month) was “D10: 0.59 μm” and the “PSD D50” value (−20° C., 3 Month) was “D50: 1.1 μm”. For the same compound, the “PSD D90” value (−20° C., 3 Month) was “D90: 2.0 μm”, the “Total Impurities by HPLC (Area %)” value (−20° C., 3 Month) was 0.63% and the “Water Content by Karl Fischer” value (−20° C., 3 Month) was 7.0%. The Appearance (−20° C., 6 Month) was “Brown Solid”, the “Assay by UPLC (Wt % of an anhydrous basis, sum of Atropisomers)” value (−20° C., 6 Month) was 100.7% and the “PSD D10” value (−20° C., 6 Month) was “D10: 0.59 μm*”. For the same compound, the “PSD D50” value (−20° C., 6 Month) was “D50: 1.1 μm*”, the “PSD D90” value (−20° C., 6 Month) was “D90: 1.9 μm*” and the “Total Impurities by HPLC (Area %)” value (−20° C., 6 Month) was 0.63%. For the same compound, the “Water Content by Karl Fischer” value (−20° C., 6 Month) was 7.4% and the XRPD (−20° C., 6 Month) was “Amorphous”.
